Experimental data taken from patent publication US9624209B2, “Substituted phenylureas and phenylamides as vanilloid receptor ligands” (Gruenenthal GmbH, priority 2009, dated 2017).

What follows are molecules tested against T1, vanilloid receptor 1 (VR1/TRPV1 receptor) (Homo sapiens, UniProt Q8NER1) (assay: VR1/TRPV1 receptor affinity, capsaicin stimulus (human)). Settings: Tables 8-12, read-out: (f) Ki (human being) [nM] Cap.
T1 construct: expressed in transfected cells; host or cells: CHO K1 cells (ECACC), stably transfected
T1 sequence (Q8NER1 whole entry): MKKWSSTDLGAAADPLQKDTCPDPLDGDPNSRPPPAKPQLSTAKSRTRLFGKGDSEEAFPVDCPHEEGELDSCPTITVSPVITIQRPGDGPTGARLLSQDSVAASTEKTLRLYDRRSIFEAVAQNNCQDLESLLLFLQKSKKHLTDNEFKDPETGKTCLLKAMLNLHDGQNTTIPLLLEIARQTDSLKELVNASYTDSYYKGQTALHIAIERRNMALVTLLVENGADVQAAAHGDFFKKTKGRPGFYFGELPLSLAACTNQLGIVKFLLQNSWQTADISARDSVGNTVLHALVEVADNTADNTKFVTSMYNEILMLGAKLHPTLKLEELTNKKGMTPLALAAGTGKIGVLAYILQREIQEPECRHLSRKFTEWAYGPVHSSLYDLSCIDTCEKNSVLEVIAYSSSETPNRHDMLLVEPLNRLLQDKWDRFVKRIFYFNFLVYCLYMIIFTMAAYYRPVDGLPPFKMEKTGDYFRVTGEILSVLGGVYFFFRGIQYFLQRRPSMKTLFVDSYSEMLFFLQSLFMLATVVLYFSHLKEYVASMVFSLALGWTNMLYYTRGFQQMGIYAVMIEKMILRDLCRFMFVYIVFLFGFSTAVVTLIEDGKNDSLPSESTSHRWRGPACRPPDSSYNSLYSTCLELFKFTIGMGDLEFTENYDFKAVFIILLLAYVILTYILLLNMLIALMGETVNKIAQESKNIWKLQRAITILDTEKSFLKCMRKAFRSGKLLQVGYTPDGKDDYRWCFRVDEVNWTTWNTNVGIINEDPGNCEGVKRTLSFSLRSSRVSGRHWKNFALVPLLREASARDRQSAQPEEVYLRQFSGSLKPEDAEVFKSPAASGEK
Format: cell-based, human being

Point of comparison: `Cc1cccc(-n2nc(C(C)(C)C)cc2CNC(=O)C(C)c2ccc(CNS(C)(=O)=O)c(F)c2)c1` (centres unmarked) [Example B88, N-[[5-tert-Butyl-2-(m-tolyl)-2H-pyrazol-3-yl]-methyl]-2-[3-fluoro-4-(methanesulfonamido-methyl)-phenyl]-propionamide], Ki 29 nM. Against it:
- COc1cccc(-n2nc(C(F)(F)F)cc2CNC(=O)Nc2ccc(CNS(N)(=O)=O)c(F)c2)c1 [Example B71, 1-[3-Fluoro-4-[(sulfamoylamino)-methyl]-phenyl]-3-[[2-(3-methoxyphenyl)-5-(trifluoromethyl)-2H-pyrazol-3-yl]-methyl]-urea] — within 1.5-fold, 41 nM
- CC(C)(C)c1cc(CNC(=O)Nc2ccc(CNS(C)(=O)=O)c(F)c2)n(-c2ccc(F)c(F)c2)n1 [Example B72, 1-[[5-tert-Butyl-2-(3,4-difluoro-phenyl)-2H-pyrazol-3-yl]-methyl]-3-[3-fluoro-4-(methanesulfonamido-methyl)-phenyl]-urea] — 2.2-fold lower, 13 nM
- CC(C)c1cccc(-n2nc(C(F)(F)F)cc2CNC(=O)Nc2ccc(CNS(C)(=O)=O)c(F)c2)c1 [Example B73, 1-[3-Fluoro-4-(methanesulfonamido-methyl)-phenyl]-3-[[2-(3-isopropyl-phenyl)-5-(trifluoromethyl)-2H-pyrazol-3-yl]-methyl]-urea] — 9.7-fold lower, 3 nM
- CC(C)(C)c1cc(CNC(=O)Nc2ccc(CNS(N)(=O)=O)cc2)n(-c2ccc(F)c(F)c2)n1 [Example B74, 1-[[5-tert-Butyl-2-(3,4-difluoro-phenyl)-2H-pyrazol-3-yl]-methyl]-3-[4-[(sulfamoylamino)-methyl]-phenyl]-urea] — within 1.5-fold, 37 nM
- NS(=O)(=O)NCc1ccc(NC(=O)NCc2cc(C3CC3)nn2-c2cccc(Cl)c2)cc1 [Example B75, 1-[[2-(3-Chlorophenyl)-5-cyclopropyl-2H-pyrazol-3-yl]-methyl]-3-[4-[(sulfamoylamino)-methyl]-phenyl]-urea] — 1.5-fold lower, 19 nM
- COc1cc(C(C)C(=O)NCc2cc(C(F)(F)F)nn2-c2cccc(Cl)c2)ccc1CNS(C)(=O)=O (centres unmarked) [Example B76, N-[[2-(3-Chlorophenyl)-5-(trifluoromethyl)-2H-pyrazol-3-yl]-methyl]-2-[4-(methanesulfonamido-methyl)-3-methoxy-phenyl]-propionamide] — 2.4-fold lower, 12 nM
- NS(=O)(=O)NCc1ccc(NC(=O)NCc2cc(C(F)(F)F)nn2-c2cccc(F)c2)cc1 [Example B77, 1-[[2-(3-Fluorophenyl)-5-(trifluoromethyl)-2H-pyrazol-3-yl]-methyl]-3-[4-[(sulfamoylamino)-methyl]-phenyl]-urea] — 1.5-fold higher, 44 nM
- NS(=O)(=O)NCc1ccc(NC(=O)NCc2cc(C(F)(F)F)nn2-c2ccc(F)c(Cl)c2)cc1 [Example B78, 1-[[2-(3-Chloro-4-fluoro-phenyl)-5-(trifluoromethyl)-2H-pyrazol-3-yl]-methyl]-3-[4-[(sulfamoylamino)-methyl]-phenyl]-urea] — within 1.5-fold, 21 nM
- CC(C)c1cccc(-n2nc(C(F)(F)F)cc2CNC(=O)Nc2ccc(CNS(N)(=O)=O)cc2)c1 [Example B79, 1-[[2-(3-Isopropyl-phenyl)-5-(trifluoromethyl)-2H-pyrazol-3-yl]-methyl]-3-[4-[(sulfamoylamino)-methyl]-phenyl]-urea] — 14-fold lower, 2 nM
- CC(C)c1cccc(-n2nc(C(F)(F)F)cc2CNC(=O)Nc2ccc(CNS(N)(=O)=O)c(F)c2)c1 [Example B80, 1-[3-Fluoro-4-[(sulfamoylamino)-methyl]-phenyl]-3-[[2-(3-isopropyl-phenyl)-5-(trifluoromethyl)-2H-pyrazol-3-yl]-methyl]-urea] — 14-fold lower, 2 nM
- CS(=O)(=O)NCc1ccc(NC(=O)NCc2cc(C(F)(F)F)nn2-c2cccc(Cl)c2)cc1 [Example B81, 1-[[2-(3-Chlorophenyl)-5-(trifluoromethyl)-2H-pyrazol-3-yl]-methyl]-3-[4-(methanesulfonamido-methyl)-phenyl]-urea] — within 1.5-fold, 33 nM
- CC(C)c1cccc(-n2nc(C(F)(F)F)cc2CNC(=O)C(C)c2ccc(CNS(C)(=O)=O)c(F)c2)c1 (centres unmarked) [Example B82, 2-[3-Fluoro-4-(methanesulfonamido-methyl)-phenyl]-N-[[2-(3-isopropyl-phenyl)-5-(trifluoromethyl)-2H-pyrazol-3-yl]-methyl]-propionamide] — 36-fold lower, 0.8 nM
- CC(C)c1cccc(-n2nc(C(F)(F)F)cc2CNC(=O)Nc2ccc(CNS(C)(=O)=O)cc2)c1 [Example B83, 1-[[2-(3-isopropyl-phenyl)-5-(trifluoromethyl)-2H-pyrazol-3-yl]-methyl]-3-[4-(methanesulfonamido-methyl)-phenyl]-urea] — 9.7-fold lower, 3 nM
- CCS(=O)(=O)NCc1ccc(NC(=O)NCc2cc(C(F)(F)F)nn2-c2cccc(Cl)c2)cc1 [Example B84, 1-[[2-(3-Chlorophenyl)-5-(trifluoromethyl)-2H-pyrazol-3-yl]-methyl]-3-[4-[[(ethylsulfonyl)amino]-methyl]-phenyl]-urea] — 1.8-fold higher, 53 nM
- CCS(=O)(=O)NCc1ccc(NC(=O)NCc2cc(C(C)(C)C)nn2-c2cccc(Cl)c2)cc1 [Example B85, 1-[[5-tert-Butyl-2-(3-chlorophenyl)-2H-pyrazol-3-yl]-methyl]-3-[4-[[(ethylsulfonyl)amino]-methyl]-phenyl]-urea] — 1.8-fold lower, 16 nM
- COc1cc(NC(=O)NCc2cc(C(F)(F)F)nn2-c2cccc(C)c2)ccc1CNS(C)(=O)=O [Example B86, 1-[4-(Methanesulfonamido-methyl)-3-methoxy-phenyl]-3-[[2-(m-tolyl)-5-(trifluoromethyl)-2H-pyrazol-3-yl]-methyl]-urea] — 3.2-fold higher, 93 nM
- Cc1cccc(-n2nc(C(F)(F)F)cc2CNC(=O)Nc2ccc(CNS(C)(=O)=O)c(F)c2)c1 [Example B87, 1-[3-Fluoro-4-(methanesulfonamido-methyl)-phenyl]-3-[[2-(m-tolyl)-5-(trifluoromethyl)-2H-pyrazol-3-yl]-methyl]-urea] — 1.9-fold lower, 15 nM
- Cc1cccc(-n2nc(C(F)(F)F)cc2CNC(=O)Nc2ccc(CNS(C)(=O)=O)cc2)c1 [Example B89, 1-[4-(Methanesulfonamido-methyl)-phenyl]-3-[[2-(m-tolyl)-5-(trifluoromethyl)-2H-pyrazol-3-yl]-methyl]-urea] — within 1.5-fold, 24 nM
- Cc1cccc(-n2nc(C(C)(C)C)cc2CNC(=O)Nc2ccc(CNS(C)(=O)=O)cc2)c1 [Example B90, 1-[[5-tert-Butyl-2-(m-tolyl)-2H-pyrazol-3-yl]-methyl]-3-[4-(methanesulfonamido-methyl)-phenyl]-urea] — 2.4-fold lower, 12 nM
- CCS(=O)(=O)NCc1ccc(NC(=O)NCc2cc(C(F)(F)F)nn2-c2cccc(C)c2)cc1 [Example B91, 1-[4-[[(Ethylsulfonyl)amino]-methyl]-phenyl]-3-[[2-(m-tolyl)-5-(trifluoromethyl)-2H-pyrazol-3-yl]-methyl]-urea] — 2-fold higher, 57 nM
- CCS(=O)(=O)NCc1ccc(NC(=O)NCc2cc(C(C)(C)C)nn2-c2cccc(C)c2)cc1 [Example B92, 1-[[5-tert-Butyl-2-(m-tolyl)-2H-pyrazol-3-yl]-methyl]-3-[4-[[(ethylsulfonyl)amino]-methyl]-phenyl]-urea] — 2.3-fold higher, 67 nM
- CC(C(=O)NCc1cc(C(C)(C)C)nn1-c1cccc(Cl)c1)c1ccc(CNS(N)(=O)=O)c(F)c1 (centres unmarked) [Example B93, N-[[5-tert-Butyl-2-(3-chlorophenyl)-2H-pyrazol-3-yl]-methyl]-2-[3-fluoro-4-[(sulfamoylamino)-methyl]-phenyl]-propionamide] — 7.2-fold lower, 4 nM
